According to US8957087B2, “Heterocyclic substituted acardite derivate and application thereof” (Jiangsu Provincial Institute of Materia Medica Co., Ltd., priority 2009, dated 2015):

Columns and labels:
[1] = tested on: renal carcinoma cell line GCR-1 transplanted tumor; format: in vivo, BALB/cA nude mice; details: BALB/cA nude mice; 60 mg/kg, 6 times every week for 3 weeks; Sorafenib oral 60 mg/kg
Method: 11. Tumor inhibition rate of medicines on renal carcinoma cell line GCR-1 transplanted tumor model in nude mice
(§1) [Test animals] female BALB/cA nude mice, 35-40 days old, with weight of 18-22g. There were 12 mice in the negative conrol group and 6 mice in the treatment group.
[Test method] […] The dosage of the medicine was 60 mg/kg, 6 times every week for 3 weeks. […] Equal amount of normal saline was administrated in the negative control group. Observe for one week after administration.

[2] = tested on: human liver cancer cell bel-7402 transplantation tumor; format: in vivo; details: BALB/cA nude mice; 60 mg/kg, 6 times every week for 3 weeks; Sorafenib oral 60 mg/kg
Method: 10. Tumor inhibition rate of tested compounds on human liver cancer cell bel-7402 transplantation tumor model in nude mice
as §1
(§2) The dosage of the compound was 60 mg/kg, 6 times every week for 3 weeks. […] Equal amount of normal saline was administrated in the negative control group. Observe for one week after administration.

Raf-1(truncated) = experiment: Raf-1 inhibitor screening by chemoluminescence method; format: biochemical; details: Final concentration 1 x 1.0*10^−5 mol/ml
Text: 1. Inhibitory activity of the compound of the present invention on raf kinase
Raf-1 inhibitor screening by chemoluminescence method
Westernblot electrophoresis apparatus Rotaryshaker
Raf-1(truncated), Magnesium/ATP Cocktail, MEK1 unactive

[3] = tested on: human umbilical vein endothelial cell HUVEC; experiment: Lumen formation ability of HUVEC (Matrigel method); format: cell-based; details: Final concentration 1 x 1.0*10^(−5) mol/L
Text: 8. Inhibition effects of compounds on the lumen formation ability of human umbilical vein endothelial cell HUVEC
[Experimental principles] The human umbilical vein endothelial cells have ability of spontaneously forming blood lumen on Matrigel, which can be used to simulate the process of angiogenesis in vivo. We used Matrigel method to investigate the effects of the compound on the lumen formation ability of human umbilical vein endothelial cell HUVEC.
[Test materials] HUVEC (taking generation 3 to 5 cells for experiments after obtained from primary separation and cultured at 37 under the conditions of 5% CO2), Matrigel, cell culture medium M199.
(§3) [Tested compound] Compounds 1-38
(§4) [Positive control medicine] Sorafenib, compounds A′, B′, C′ with no substituent or only amino formyl in A ring
(§5) The inhibition rate is calculated as follows: […]

[4] = tested on: human lung cancer A549 transplantation tumor; format: in vivo; details: BALB/cA nude mice; 60 mg/kg, 6 times every week for 3 weeks; Sorafenib oral 60 mg/kg
Method: 9. Tumor inhibition rate of tested compounds on human lung cancer A549 cell transplantation model in nude mice
as §1, §2

[5] = tested on: human lung cancer cell strain A549; experiment: MTT assay, inhibition of growth of human lung cancer cell strain A549; format: cell-based; details: Final concentration 1 x 1.0*10^(−5) mol/L
Method: 4. Using 3-(4,5-dimethylthiazol-2-yl)-2,5-diphenyl tetrazolium bromide assay (MTT) to detect the inhibition effects on the growth of human lung cancer cell strain A549
[Test materials] MTT working solution, F12 medium containing 10% FBS, continuous injectors
as §3, §4
The inhibition rate is calculated as follows:
(§6) Relative OD value of conrol well=OD value of control well−OD value of blank well
(§7) Relative OD value of drug well=OD value of drug well−OD value of blank well

[6] = tested on: Human colon cancer HT-29 transplantable tumor; experiment: Human colon cancer HT-29 transplantable tumor in nude mice; details: HT-29 in nude mice, 60 mg/kg ig 9 times
mice S180 sarcoma = experiment: Experimental therapeutic action on S180 sarcoma mice; details: mice S180 sarcoma, 60 mg/kg orally for 9 days
lung cancer cell A549 = experiment: Effects on the adhesive ability of lung cancer cell A549; format: cell-based, human; details: Final concentration 1 x 1.0*10^(−5) mol/L
Method: 6. Effects of tested compounds on the adhesive ability of lung cancer cell A549
[Test materials] gelatin, CCK8, poly-lysine (PLL), A549 cell stains, 1640 medium containing 10% FBS
(§8) [Tested compound] Compounds 1-38 to be tested
as §4, §5
Dosing dosing cells without cell group (gelatin adhesive OD/PLL adhesion OD)−Dosing cell group (gelatin adhesive OD/PLL adhesion OD value)
Dosing dosing cells without cell group (gelatin adhesive OD/PLL adhesion OD value)

[7] = tested on: human high-metastic lung cancer cell 95D; experiment: Inhibition of human high-metastic lung cancer cell 95D migration (Boyden Chamber Transwell); format: cell-based; details: Final concentration 1 x 1.0*10^(−5) mol/L
Method: 5 Inhibition effects of compounds on human high-metastic lung cancer cell 95D migration
[Test materials] Boyden Chamber Transwell chamber (with pore size of 8 μm), human high-metastic lung cancer cell 95D cell strain, 1640 medium containing 10% FBS, 1640 medium containing no serum
as §3, §4, §5

[8] = tested on: human umbilical vein endothelial cell HUVEC; experiment: Growth of human umbilical vein endothelial cell HUVEC by CCK8 method; format: cell-based; details: Final concentration 1 x 1.0*10^(−5) mol/L
Text: 7. Effects of tested compounds on the growth of human umbilical vein endothelial cell HUVEC cell by CCK8 method
[Test materials] CCK8, human umbilical vein endothelial cell HUVEC cell, 1640 medium containing 10% FBS
as §8, §4, §6, §7

SMILES	Relative tumor reproduction rate T/C (%) on human renal carcinoma GCR-1 cell transplanted tumor model in nude mice [1]	Relative tumor reproduction rate T/C (%) on human liver cancer cell bel-7402 transplantation tumor model in nude mice [2]	Inhibition rate % on raf kinase (Raf-1(truncated))	Inhibition rate, lumen formation ability of HUVEC [3]	Relative tumor reproduction rate T/C (%) on human lung cancer A549 transplantation tumor in nude mice [4]	Inhibition rate, growth of human lung cancer cell A549 [5]	Relative tumor reproduction rate T/C (%) [6]	Tumor growth inhibition rate (%) (mice S180 sarcoma)	Inhibition rate, adhesion ability of human lung cancer cell A549 (lung cancer cell A549)	Inhibition rate, 95D cell strain migration [7]	Inhibition rate, growth of HUVEC cell [8]
CNC(=O)c1ncc(Oc2ccc(NC(=O)Nc3ccc(Cl)c(C(F)(F)F)c3)cc2)c(OC)n1 [Compound 7, N-(4-chloro-3-(trifluoromethyl)phenyl)-N′-(4-(2-(N-methylaminoformoxyl)-5-(4-methoxypyrimidinyl)oxy)phenyl)urea]	21.2%	34.2%	99.1%	60.34%	39.3%	45.30%	40.1%	21.5%	68.34%	89.34%	8.30%
CNC(=O)c1ncc(Oc2ccc(NC(=O)Nc3ccc(Br)c(C(F)(F)F)c3)cc2)c(OC)n1 [Compound 9, N-(4-bromo-3-(trifluoromethyl)phenyl)-N′-(4-(2-(N-methylaminoformoxyl)-5-(4-methoxypyrimidinyl)oxy)phenyl)urea]	28.3%	36.8%	99.2%	91.45%	38.7%	61.54%	35.2%	55.9%	85.32%	91.42%	11.54%
CNC(=O)c1ncc(Oc2ccc(NC(=O)Nc3ccc(F)c(C(F)(F)F)c3)cc2)c2ccc(N)cc12 [Compound 11, N-(4-fluoro-3-(trifluoromethyl)phenyl)-N′-(4-(2-(N-methylaminoformoxyl)-4-(7-amino-isoquinolyl)oxy)phenyl)urea]	32.1%	23.7%	11.2%	79.63%	43.7%	69.20%	81.2%	54.2%	59.63%	78.66%	29.20%
CNC(=O)c1ncc(Oc2ccc(NC(=O)Nc3ccc(Br)c(C(F)(F)F)c3)cc2)c2ccc(N)cc12 [Compound 12, N-(4-bromo-3-(trifluoromethyl)phenyl)-N′-(4-(2-(N-methylaminoformoxyl)-4-(7-amino-isoquinolyl)oxy)phenyl)urea]	20.5%	31.6%	12.1%	52.37%	36.3%	42.31%	80.5%	45.7%	62.30%	66.79%	12.31%
CNC(=O)c1cc(Oc2ccc(NC(=O)Nc3ccc(Cl)c(C(F)(F)F)c3)cc2)c(C)[nH]1 [Compound 13, N-(4-chloro-3-(trifluoromethyl)phenyl)-N′-(4-(2-(N-methylaminoformoxyl)-4-(5-methyl-pyrryl)oxy)phenyl)urea]	28.3%	29.8%	55.0%	53.36%	38.4%	64.23%	81.2%	21.2%	63.39%	65.45%	24.23%
CNC(=O)c1cc(Oc2ccc(NC(=O)Nc3ccc(F)c(C(F)(F)F)c3)cc2)c(C)[nH]1 [Compound 14, N-(4-fluoro-3-(trifluoromethyl)phenyl)-N′-(4-(2-(N-methylaminoformoxyl)-4-(5-methyl-pyrryl)oxy)phenyl)urea]	31.1%	36.1%	41.3%	67.53%	32.2%	67.25%	40.1%	18.2%	67.51%	57.57%	17.25%
CNC(=O)c1cc(Oc2ccc(NC(=O)Nc3ccc(Br)c(C(F)(F)F)c3)cc2)c(C)[nH]1 [Compound 15, N-(4-bromo-3-(trifluoromethyl)phenyl)-N′-(4-(2-(N-methylaminoformoxyl)-4-(5-methyl-pyrryl)oxy)phenyl)urea]	22.5%	33.6%	35.5%	68.64%	38.7%	72.17%	85.2%	56.7%	68.63%	63.68%	38.17%
